Experimental data as given in patent US10774094B2, “Crystal forms and salt forms of 7h-pyrrolo[2,3-d]pyrimidine compounds and preparation method thereof” (Wuxi Fortune Pharmaceutical Co., Ltd, priority 2016, dated 2020).

Legend:
[1] = target: T1, Recombinant human JAK1 (Homo sapiens, UniProt P23458); assay: In-vitro activity test of JAK1 kinase (LANCE Ultra); type: biochemical
T1 construct: purchased Life technology
Description: (§1) Recombinant human JAK1, JAK2, and JAK3 […] were purchased from Life technology. LANCE Ultra ULight™-JAK-1 (Tyr1023) peptide and LANCE Eu-W1024 Anti-phosphotyrosine (PT66) both were purchased from PerkinElmer. The plates were read using a multiplex enzyme reader Envision (PerkinElmer).
(§2) The test compounds were subjected to 3-fold concentration gradient dilution to afford 11 final concentrations ranging from 10 uM to 0.17 nM; two wells were formed for each concentration; and the content of DMSO in the detection reaction was 1%.
(§3) 2 nM of JAK1 protein kinase, 50 nM of LANCE Ultra ULight™-JAK-1 (Tyr1023) peptide, 38 uM of ATP, 50 mM of HEPES (pH 7.5), 10 mM of MgCl2, 1 mM of EGTA, 2 mM of DTT, and 0.01% of BRIJ-35 were included. The assay plate was a White Proxiplate 384-Plus plate (PerkinElmer). The reaction was performed at room temperature for 90 minutes; and the reaction system was 10 ul.
(§4) 10 ul of the detection reagent was added to a reaction plate, wherein the final concentration of LANCE Eu-W1024 Anti-phosphotyrosine (PT66) was 2 nM, and the final concentration of EDTA was 10 mM. The reagents were incubated for 60 minutes at room temperature; and the plate was read with Envision instrument.
The reading was converted to an inhibition rate by the following formula: […]. IC50 data were measured by 4-parameter curve fitting (Model 205 in XLFIT5, iDBS). Seen Table 9 for details.

[2] = target: T2, Recombinant human JAK2 (Homo sapiens, UniProt O60674); assay: In-vitro activity test of JAK2 kinase (LANCE Ultra); type: biochemical
T2 construct: purchased Life technology
Description: as §1, §2
as §3, with “0.02 nM” for “2 nM”, “of JAK2” for “of JAK1”, “peptide, 12” for “peptide, 38”, “for 60” for “for 90”
as §4
The reading was converted to an inhibition rate by the following formula: (%)=(Min−Ratio)/(Max−Min)*100%. IC50 data were measured by 4-parameter curve fitting (Model 205 in XLFIT5, iDBS). […]

[3] = Technical effect statement on properties of the crystal forms (no method given); type: physicochemical
[4] = Solid stability tests of crystal form E under high temperature, high humidity and strong light (XRPD); type: physicochemical
Description: The vial in which the samples were placed at high temperature and high humidity was sealed with an aluminum foil, and small holes were formed in the aluminum foil to ensure that the samples were sufficiently contacted with atmospheric air; and the sample placed at strong light radiation was sealed with a threaded cap. The samples placed under different conditions were sampled and tested by XRPD on day 5 and day 10. The test results were compared with the initial test results on day 0.

[5] = Stability tests of crystal form A in different solvents (40° C., 2 days, XRPD); type: physicochemical; details: for Results (crystal form of the solid by XRPD): 40° C., 2 days; for Appearance (2 days): stirred at 40° C. for 2 days
Description: The solids in all samples were collected and dried overnight in a vacuum drying oven (25° C.).

[6] = Solubility tests of crystal form A in different solvents (manual stepwise dilution); type: physicochemical; details: for solubility: thermodynamic from solid, atmospheric temperature
Description: These solubility tests were carried out by manually stepwise dilution and simultaneous observation of dissolution at atmospheric temperature.

T1 sequence (P23458 whole entry): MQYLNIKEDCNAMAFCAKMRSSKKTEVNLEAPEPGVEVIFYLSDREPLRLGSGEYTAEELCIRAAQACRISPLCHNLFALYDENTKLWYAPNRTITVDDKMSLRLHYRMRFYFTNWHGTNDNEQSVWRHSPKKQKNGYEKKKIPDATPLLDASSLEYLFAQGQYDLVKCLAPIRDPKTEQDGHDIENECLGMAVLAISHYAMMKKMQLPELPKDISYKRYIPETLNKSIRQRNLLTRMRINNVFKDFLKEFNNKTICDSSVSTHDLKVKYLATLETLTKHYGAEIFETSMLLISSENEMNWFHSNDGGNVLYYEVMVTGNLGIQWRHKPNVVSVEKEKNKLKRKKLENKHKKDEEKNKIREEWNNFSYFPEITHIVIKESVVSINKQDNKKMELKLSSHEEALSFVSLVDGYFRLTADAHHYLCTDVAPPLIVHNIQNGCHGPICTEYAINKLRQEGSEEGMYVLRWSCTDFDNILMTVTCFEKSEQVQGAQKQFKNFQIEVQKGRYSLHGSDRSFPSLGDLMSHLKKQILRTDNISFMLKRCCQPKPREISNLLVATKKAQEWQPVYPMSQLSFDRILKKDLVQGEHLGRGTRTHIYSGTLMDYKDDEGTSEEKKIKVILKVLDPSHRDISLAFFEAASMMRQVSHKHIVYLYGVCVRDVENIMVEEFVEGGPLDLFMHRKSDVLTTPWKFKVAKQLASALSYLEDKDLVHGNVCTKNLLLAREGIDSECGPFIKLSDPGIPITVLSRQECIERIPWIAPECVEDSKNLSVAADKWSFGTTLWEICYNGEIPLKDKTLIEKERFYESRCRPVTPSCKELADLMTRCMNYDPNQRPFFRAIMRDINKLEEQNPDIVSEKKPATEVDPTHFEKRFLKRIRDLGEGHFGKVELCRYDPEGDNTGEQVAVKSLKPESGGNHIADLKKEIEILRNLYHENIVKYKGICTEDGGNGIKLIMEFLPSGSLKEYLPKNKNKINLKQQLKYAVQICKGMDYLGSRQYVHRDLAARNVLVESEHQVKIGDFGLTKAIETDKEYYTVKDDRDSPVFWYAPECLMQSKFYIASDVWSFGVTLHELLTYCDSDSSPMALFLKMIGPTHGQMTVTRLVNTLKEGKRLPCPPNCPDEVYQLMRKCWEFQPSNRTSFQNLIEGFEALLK
T2 sequence (O60674 whole entry): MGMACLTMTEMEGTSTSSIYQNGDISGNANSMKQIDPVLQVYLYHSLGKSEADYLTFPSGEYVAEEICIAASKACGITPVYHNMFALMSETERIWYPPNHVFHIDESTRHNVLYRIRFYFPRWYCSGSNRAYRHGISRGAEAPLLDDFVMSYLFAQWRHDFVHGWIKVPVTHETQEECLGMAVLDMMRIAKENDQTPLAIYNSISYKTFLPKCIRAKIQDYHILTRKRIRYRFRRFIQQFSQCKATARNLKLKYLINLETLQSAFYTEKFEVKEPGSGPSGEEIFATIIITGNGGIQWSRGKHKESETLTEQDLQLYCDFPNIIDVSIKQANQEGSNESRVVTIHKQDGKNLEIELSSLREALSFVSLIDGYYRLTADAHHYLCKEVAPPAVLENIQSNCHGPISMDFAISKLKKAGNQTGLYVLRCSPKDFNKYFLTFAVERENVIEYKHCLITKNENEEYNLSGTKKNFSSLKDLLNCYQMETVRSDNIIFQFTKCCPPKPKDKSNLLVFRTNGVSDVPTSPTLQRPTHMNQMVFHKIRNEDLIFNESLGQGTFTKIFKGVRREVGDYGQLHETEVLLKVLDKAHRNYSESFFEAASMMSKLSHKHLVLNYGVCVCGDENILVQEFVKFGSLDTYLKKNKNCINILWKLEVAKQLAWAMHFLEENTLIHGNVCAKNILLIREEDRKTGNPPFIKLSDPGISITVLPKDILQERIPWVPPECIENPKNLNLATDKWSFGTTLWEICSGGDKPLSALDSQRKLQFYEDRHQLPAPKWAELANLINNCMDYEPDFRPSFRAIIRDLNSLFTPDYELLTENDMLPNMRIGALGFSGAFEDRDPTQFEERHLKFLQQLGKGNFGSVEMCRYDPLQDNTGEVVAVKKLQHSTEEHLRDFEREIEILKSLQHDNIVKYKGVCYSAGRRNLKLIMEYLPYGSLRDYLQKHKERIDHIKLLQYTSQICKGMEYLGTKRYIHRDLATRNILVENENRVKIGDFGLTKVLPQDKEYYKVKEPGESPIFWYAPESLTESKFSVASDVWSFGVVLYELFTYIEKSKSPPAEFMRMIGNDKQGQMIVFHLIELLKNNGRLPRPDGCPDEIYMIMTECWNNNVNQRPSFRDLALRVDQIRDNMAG

## CN(c1ncnc2[nH]ccc12)[C@@H]1CCn2cc(C#N)nc2C1 (single isomer, unassigned) [Compound 1, 7-[methyl-[7-hydropyrrolo[2,3-d]pyrimidin-4-yl]amino]-5,6,7,8-tetrahydroimidazo[1,2-a]pyridin-2-nitrile]
[1]
  inhibitory activity against JAK1 (in words): strong inhibitory activity
  selective inhibition (JAK1 versus JAK2, in words): better selective inhibition for JAK
[1]; 38 uM ATP, 90 minutes, room temperature
  IC50: ≤ 10 nM
[2]
  inhibitory activity against JAK2 (in words): relatively weak inhibitory activity
[2]; 12 uM ATP, 60 minutes, room temperature
  IC50: 10 to 100 nM

## CN(c1ncnc2[nH]ccc12)[C@@H]1CCn2cc(C#N)nc2C1.Cc1ccc(S(=O)(=O)O)cc1 [Crystal Form E of Compound 2]
[3]
  hygroscopicity (in words): low hygroscopicity
  stability (in words): stable properties
  water solubility (in words): excellent water solubility
[4]; High humidity (room temperature/relative humidity 92.5%, open), day 5
  XRPD: Crystal form E
[4]; High humidity (room temperature/relative humidity 92.5%, open), day 5 and day 10
  Appearance: White powder
[4]; High humidity (room temperature/relative humidity 92.5%, open), day 10
  XRPD: Crystal form E
[4]; High temperature (60° C., open), day 5
  XRPD: Crystal form E
[4]; High temperature (60° C., open), day 5 and day 10
  Appearance: White powder
[4]; High temperature (60° C., open), day 10
  XRPD: Crystal form E
[4]; Strong light radiation (5000 lx, close), day 5
  XRPD: Crystal form E
[4]; Strong light radiation (5000 lx, close), day 5 and day 10
  Appearance: White powder
[4]; Strong light radiation (5000 lx, close), day 10
  XRPD: Crystal form E
[4]; day 0 (initial)
  Appearance: White powder
  XRPD: Crystal form E

## CN(c1ncnc2[nH]ccc12)[C@@H]1CCn2cc(C#N)nc2C1.O=C(O)C(F)(F)F [crystal form F of the compound 3]
[3]
  hygroscopicity (in words): low hygroscopicity
  stability (in words): stable properties
  water solubility (in words): excellent water solubility

## CN(c1ncnc2[nH]ccc12)[C@@H]1CCn2cc(C#N)nc2C1 [Crystal Form A of Compound 1]
[5]; Acetone-water (1:2)
  Results (crystal form of the solid by XRPD): Crystal form A
  Appearance (2 days): Suspension
[5]; Acetone
  Results (crystal form of the solid by XRPD): Crystal form A
  Appearance (2 days): Suspension
[5]; Ethanol-water (3:1)
  Results (crystal form of the solid by XRPD): Crystal form A
  Appearance (2 days): Suspension
[5]; Ethanol
  Results (crystal form of the solid by XRPD): Crystal form A
  Appearance (2 days): Suspension
[5]; Ethyl acetate
  Results (crystal form of the solid by XRPD): Crystal form A
  Appearance (2 days): Suspension
[5]; Isopropanol
  Results (crystal form of the solid by XRPD): Crystal form A
  Appearance (2 days): Suspension
[5]; Isopropyl alcohol-water (1:1)
  Results (crystal form of the solid by XRPD): Crystal form A
  Appearance (2 days): Suspension
[5]; Methanol-water (3:1)
  Results (crystal form of the solid by XRPD): Crystal form A
  Appearance (2 days): Suspension
[5]; Methanol
  Results (crystal form of the solid by XRPD): Crystal form A
  Appearance (2 days): Suspension
[5]; Tetrahydrofuran
  Results (crystal form of the solid by XRPD): Crystal form A
  Appearance (2 days): Suspension
[3]
  hygroscopicity (in words): low hygroscopicity
  stability (in words): stable properties
  water solubility (in words): excellent water solubility
[6]; 1,4-dioxane
  Solubility conclusion: Slightly soluble/very
[6]; 2-methyltetrahydrofuran
  Solubility conclusion: Slightly soluble/very
[6]; Acetone
  Solubility conclusion: Slightly soluble/very
[6]; Acetone-water (1:2)
  Solubility conclusion: Slightly soluble/very
[6]; Acetonitrile
  Solubility conclusion: Slightly soluble/very
[6]; Acetonitrile-water (1:1)
  Solubility conclusion: Slightly soluble/very
[6]; Cyclohexane
  Solubility conclusion: Slightly soluble/very
[6]; Ethanol
  Solubility conclusion: Slightly soluble/very
[6]; Ethanol-water (1:1)
  Solubility conclusion: Slightly soluble/very
[6]; Ethanol-water (3:1)
  Solubility conclusion: Slightly soluble/very
[6]; Ethyl acetate
  Solubility conclusion: Slightly soluble/very
[6]; Heptane
  Solubility conclusion: Slightly soluble/very
[6]; Isopropanol
  Solubility conclusion: Slightly soluble/very
[6]; Isopropyl acetate
  Solubility conclusion: Slightly soluble/very
[6]; Isopropyl alcohol-water (1:1)
  Solubility conclusion: Slightly soluble/very
[6]; Methanol
  Solubility conclusion: Slightly soluble/very
[6]; Methanol-water (1:1)
  Solubility conclusion: Slightly soluble/very
[6]; Methanol-water (3:1)
  Solubility conclusion: Slightly soluble/very
[6]; Methyl ethyl ketone
  Solubility conclusion: Slightly soluble/very
[6]; Methyl isobutyl ketone
  Solubility conclusion: Slightly soluble/very
[6]; Methyl tert-butyl ether
  Solubility conclusion: Slightly soluble/very
[6]; N-butanol
  Solubility conclusion: Slightly soluble/very
[6]; Tetrahydrofuran
  Solubility conclusion: Slightly soluble/very
[6]; Toluene
  Solubility conclusion: Slightly soluble/very
[6]; Water
  Solubility conclusion: Slightly soluble/very
  solubility: < 2000 µg/mL
[6]; aqueous with cosolvent or surfactant or cyclodextrin, Acetone-water (1:2)
  solubility: < 2000 µg/mL
[6]; aqueous with cosolvent or surfactant or cyclodextrin, Acetonitrile-water (1:1)
  solubility: < 2000 µg/mL
[6]; aqueous with cosolvent or surfactant or cyclodextrin, Ethanol-water (1:1)
  solubility: < 2000 µg/mL
[6]; aqueous with cosolvent or surfactant or cyclodextrin, Ethanol-water (3:1)
  solubility: < 2000 µg/mL
[6]; aqueous with cosolvent or surfactant or cyclodextrin, Isopropyl alcohol-water (1:1)
  solubility: < 2000 µg/mL
[6]; aqueous with cosolvent or surfactant or cyclodextrin, Methanol-water (1:1)
  solubility: < 2000 µg/mL
[6]; aqueous with cosolvent or surfactant or cyclodextrin, Methanol-water (3:1)
  solubility: < 2000 µg/mL
[6]; organic solvent or mixture, 1,4-dioxane
  solubility: < 2000 µg/mL
[6]; organic solvent or mixture, 2-methyltetrahydrofuran
  solubility: < 2000 µg/mL
[6]; organic solvent or mixture, Acetone
  solubility: < 2000 µg/mL
[6]; organic solvent or mixture, Acetonitrile
  solubility: < 2000 µg/mL
[6]; organic solvent or mixture, Cyclohexane
  solubility: < 2000 µg/mL
[6]; organic solvent or mixture, Ethanol
  solubility: < 2000 µg/mL
[6]; organic solvent or mixture, Ethyl acetate
  solubility: < 2000 µg/mL
[6]; organic solvent or mixture, Heptane
  solubility: < 2000 µg/mL
[6]; organic solvent or mixture, Isopropanol
  solubility: < 2000 µg/mL
[6]; organic solvent or mixture, Isopropyl acetate
  solubility: < 2000 µg/mL
[6]; organic solvent or mixture, Methanol
  solubility: < 2000 µg/mL
[6]; organic solvent or mixture, Methyl ethyl ketone
  solubility: < 2000 µg/mL
[6]; organic solvent or mixture, Methyl isobutyl ketone
  solubility: < 2000 µg/mL
[6]; organic solvent or mixture, Methyl tert-butyl ether
  solubility: < 2000 µg/mL
[6]; organic solvent or mixture, N-butanol
  solubility: < 2000 µg/mL
[6]; organic solvent or mixture, Tetrahydrofuran
  solubility: < 2000 µg/mL
[6]; organic solvent or mixture, Toluene
  solubility: < 2000 µg/mL
